Consider 1 compound from US20160287615A1, “NOVEL ENCAPSULATION OF FLUORESCENT, PHOTO-SENSITIVE, OR OXYGEN-SENSITIVE ACTIVE INGREDIENT FOR TOPICAL APPLICATION” (BioPharmX, Inc., priority 2015, published 2016).

Data set [1] is described as follows: Fluorescence microscopy of compositions under UV fluorescent lamp illumination. Type of data set: physicochemical. The following applies: 450 nm excitation wavelength. The source says: FIGS. 4a and 4b are images of the fluorescence given off by different compositions in response to illumination with a UV fluorescent lamp. The images of FIGS. 4a and 4b were captured using a digital camera connected to a microscope.
FIGS. 5a and 5b are images of the fluorescence given off by different compositions in response to illumination with a UV fluorescent lamp. The images of FIGS. 5a and 5b were captured using a digital camera connected to a microscope.
The composition includes minocycline contained in a plurality of Mg2CO3 tubular microparticles with a concentration of 1:100 of minocycline to Mg2CO3 tubular microparticles (10 milligrams of minocycline per gram of Mg2CO3 tubular microparticles).
The composition shown in FIG. 4b was made by dissolving minocycline HCl in methyl alcohol at a concentration of 10 mg/ml. A plurality of tubular microparticles comprising Mg2CO3 was added to the solution. Microscope slides were prepared with minocycline HCl (shown in FIG. 4a) and the prepared composition with a plurality of tubular microparticles described in this paragraph (shown in FIG. 4b).
Fluorescence can be an indicator of photo-initiated degradation of some antibiotics, including minocycline.

For data set [2] the following is noted: 10 h.
Experimental: Additional data was collected with a high performance liquid chromatography (HPLC) machine for two samples. The first sample was minocycline HCl and the second sample comprised a plurality of microparticles that contained minocycline HCl. […] Following exposure of both samples to ultraviolet illumination for 10 hours, an HPLC machine was used to assess the level of degradation of the minocycline active ingredient in both samples.

The structures appear in SMILES notation. Structures can show the parent of a compound that is named as a salt.

As for `CN(C)c1ccc(O)c2c1C[C@H]1C[C@H]3[C@H](N(C)C)C(O)=C(C(N)=O)C(=O)[C@@]3(O)C(O)=C1C2=O` [minocycline HCl], the fluorescence emission wavelength entry in data set [1] is “approximately 670 nm”. Moreover, in data set [1] (UV fluorescent lamp illumination, microscope magnification at 10 times), the “fluorescence observed by fluorescence microscopy” value is “showed fluorescence emission”. The “degradation of the minocycline active ingredient” value in data set [2] turned out to be 4.3%.
